The target of assay [1] is NR2B subunit-containing recombinant NMDA receptors (Homo sapiens, UniProt Q05586+Q13224). To be noted: pH 6.8 compared to pH 7.5; cited from earlier work.
Assay [2] addresses NR1-1a/NR2B receptors (Homo sapiens, UniProt Q05586+Q13224). The assay can be described thus: Two electrode voltage clamp of Xenopus oocytes expressing NR1-1a and NR2B NMDA receptor subunits; inhibition of glutamate/glycine current at pH 6.9 and 7.6. In kind it is cell-based. To be noted: for Fold increase in potency between pH 7.6 and 6.9: IC50 at pH 7.6/IC50 at pH 6.9. The method, then: Current recordings were obtained using two electrode voltage clamp of Xenopus oocytes injected with cRNA encoding the NR1-1a and NR2B NMDA receptor subunits. Cells were injected with 5-15 ng of cRNA encoding NR1-1a in combination with a 2-3 fold greater amount of either NR2B cRNA. Injected oocytes were maintained at 17° C. in Barths solution containing penicillin (10 U/ml) and streptomycin (10 μg/ml) for 2-6 days, after which recordings were made at room temperature from oocytes continuously perfused in a standard frog Ringers solution. This solution was composed of (in mM): 90 NaCl, 1.0 KCl, 10 Hepes and 0.5 BaCl2. Recording pipettes were filled with 0.3M KCl. Saturating concentrations of glutamate (20-50 μM) and glycine (20 μM) were used to activate the receptor. Drugs were prepared daily from frozen stock solutions in DMSO. Glutamate/glycine-activated currents were typically elicited from a holding potential of −20 to −40 mV. Current signals were digitized and analyzed using custom acquisition software. To study the effects of pH, oocytes were perfused with Ringer's solution at the desired pH until a stable baseline had been reached before subsequent agonist application.
Oocytes in which the glutamate/glycine current was not stable or in which the baseline holding current drifted were discarded. Inhibition of the glutamate/glycine current by drugs was examined by applying 1-4 different concentrations of the antagonist to each oocyte. […] On average recordings were made from 14 oocytes per condition.
In general terms: In two-electrode clamp one electrode senses voltage and the other passes current.

In assay [3] the test system is Male Sprague-Dawley rats. In words: Maximal electroshock seizures, duration of tonic hindlimb extension (THE). In kind it is in vivo. To be noted: for THE in drug (% control): rat, 30 mg/kg, mean ± sem. From the text:
Methods: Male Sprague-Dawley rats weighing less than 150 gm were used for these experiments. Maximal electroshock seizures were produced by delivering 200 ms biphasic square-wave pulses of 200 mA at 60 Hz via corneal electrodes, using a Wahlquist Constant Current Source (Salt Lake City, Utah). A drop of 0.9% lidocaine in saline was applied to each cornea 30 s before stimulus delivery to minimize pain. Automatic timers recorded the durations of tonic hindlimb flexion, tonic hindlimb extension (THE), clonus and flaccidity that sequentially followed stimulus delivery. The duration of THE was used as an index of seizure severity. Animals were stimulated on three consecutive days, referred to as “control”, “test”, and “recovery”. […] On “test” day, each animal received either vehicle or drug at varying intervals prior to stimulation. Reversibility of drug effect on THE was ascertained by response to stimulation administered one day after the “test” session. The values shown in the table are the mean (±sem) THE duration in the test condition, as a percentage of the mean of control and recovery conditions. Four rats were used for each time point.
P<0.001 for difference from vehicle by one-way ANOVA with Dunnett's post hoc test. For all other conditions P>0.05.
(In general: Protection in the maximal electroshock model is a classic sign of anticonvulsant action.)

By IC50 is commonly meant the concentration that gives 50% inhibition.

Sequence of NR1-1a/NR2B receptors (Q13224 27-1484, other chains not shown): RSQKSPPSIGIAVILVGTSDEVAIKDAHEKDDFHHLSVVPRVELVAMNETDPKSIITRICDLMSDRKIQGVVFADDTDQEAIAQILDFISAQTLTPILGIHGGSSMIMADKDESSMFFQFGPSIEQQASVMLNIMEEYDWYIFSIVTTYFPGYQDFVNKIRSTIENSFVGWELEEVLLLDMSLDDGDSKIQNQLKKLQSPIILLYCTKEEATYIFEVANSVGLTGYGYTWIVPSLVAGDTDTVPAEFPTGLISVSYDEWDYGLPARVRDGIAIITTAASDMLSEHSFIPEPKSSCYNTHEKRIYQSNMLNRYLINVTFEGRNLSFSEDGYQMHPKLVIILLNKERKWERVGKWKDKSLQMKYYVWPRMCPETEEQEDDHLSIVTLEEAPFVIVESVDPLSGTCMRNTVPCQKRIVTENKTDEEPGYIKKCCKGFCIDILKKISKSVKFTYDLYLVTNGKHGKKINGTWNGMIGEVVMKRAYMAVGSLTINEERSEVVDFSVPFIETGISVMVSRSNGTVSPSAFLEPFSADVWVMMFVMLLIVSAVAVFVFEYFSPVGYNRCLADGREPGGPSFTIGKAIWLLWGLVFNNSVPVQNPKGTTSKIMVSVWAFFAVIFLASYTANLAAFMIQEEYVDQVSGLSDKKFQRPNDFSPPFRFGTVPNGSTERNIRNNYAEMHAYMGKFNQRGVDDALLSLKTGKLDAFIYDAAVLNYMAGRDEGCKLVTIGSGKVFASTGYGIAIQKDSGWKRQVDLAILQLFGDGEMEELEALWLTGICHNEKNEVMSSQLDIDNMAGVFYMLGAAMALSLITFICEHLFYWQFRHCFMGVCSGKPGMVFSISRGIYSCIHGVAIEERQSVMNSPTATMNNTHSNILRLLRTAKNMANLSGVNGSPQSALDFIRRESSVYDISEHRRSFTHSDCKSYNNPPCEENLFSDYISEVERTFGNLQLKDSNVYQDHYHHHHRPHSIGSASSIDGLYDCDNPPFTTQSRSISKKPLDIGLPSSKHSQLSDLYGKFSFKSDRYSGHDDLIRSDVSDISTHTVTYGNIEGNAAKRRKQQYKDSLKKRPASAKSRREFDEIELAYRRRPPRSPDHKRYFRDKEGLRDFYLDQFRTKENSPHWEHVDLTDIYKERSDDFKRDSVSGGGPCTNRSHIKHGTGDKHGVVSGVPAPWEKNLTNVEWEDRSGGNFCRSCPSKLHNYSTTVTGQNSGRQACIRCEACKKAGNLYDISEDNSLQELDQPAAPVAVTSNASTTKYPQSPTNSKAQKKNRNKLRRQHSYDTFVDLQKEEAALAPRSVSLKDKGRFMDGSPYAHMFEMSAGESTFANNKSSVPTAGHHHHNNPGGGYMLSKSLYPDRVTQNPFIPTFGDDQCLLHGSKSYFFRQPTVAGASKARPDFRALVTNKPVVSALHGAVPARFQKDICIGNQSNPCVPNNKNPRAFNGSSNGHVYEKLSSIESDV
Sequence of NR2B subunit-containing recombinant NMDA receptors (Q13224 27-1484, other chains not shown): as above

Turning to `CC(C(O)c1ccc(O)cc1)N1CCC(Cc2ccccc2)CC1` (centres unmarked) [Ifenprodil], in assay [1], the “potency for inhibition of NR2B subunit-containing recombinant NMDA receptors as a function of pH” value is recorded as “enhanced at pH 6.8 compared to pH 7.5”.

Regarding `CS(=O)(=O)Nc1ccc(OC[C@@H](O)CN(CCO)CCc2ccc(Cl)c(Cl)c2)cc1` [93-8 (S), (S)-1-(4-methanesulphonamidephenoxy)-e-(N-(2-hydroxyethyl)-3,4-dichlorophenylethylamino)-2-propanol], the “Fold increase in potency between pH 7.6 and 6.9” value in assay [2] (Table A) and in assay [2] (Table C) was 11.3 each time. Besides, in assay [2] (Table A, pH 6.9, NR1-1a/NR2B in Xenopus oocytes, read-out: IC50 at pH 6.9), the IC50 was found to be 29 nM. Besides, the Anticonvulsive effects result in assay [3] (rat maximal electroshock, summary in words) is reported as “Anticonvulsive effects”. The “THE in drug (% control)” value in assay [3] (15 min from drug injection to electroshock) is listed as 91.9 ± 0.4 % control; in assay [3] (30 min from drug injection to electroshock) it was 85.7 ± 2.8 % control; in assay [3] (60 min from drug injection to electroshock) it was 59.3 ± 4.1 % control.

(Values after patent US7375136B2, “pH-dependent NMDA receptor antagonists” (Emory University, priority 2001, dated 2008).)
